The structures appear in SMILES notation. pIC50: −log10 of the molar value.

Data on 2 compounds can be found in ChEMBL document CHEMBL1130873 (Bioorg Med Chem Lett, 1998).

Test [1] has as its system SK-OV-3. The test can be described thus: (§1) Aerobic cytotoxic activity was evaluated by the growth inhibition of SKOV (human ovarian cancer line) aerobic cells. It is filed as functional, cell-based.
Test [2] can be described thus: Aerobic cytotoxic activity was evaluated by the growth inhibition of AA8 (chinese hamster) aerobic cells. Type of test: functional, cell-based. As to conditions: Cricetulus griseus, CHO-AA8.
Test [3] is described as follows: Concentration required to reduce cell survival tunder hypoxic conditions using the UV4 aerobic cells. It is filed as functional, Cricetulus griseus.
Test [4] is described as follows: Aerobic cytotoxic activity was evaluated by the growth inhibition of UV4 aerobic cells. It is filed as functional, cell-based. As to conditions: Cricetulus griseus.
The subject of test [5] is SK-OV-3. The test is described as §1. Type of test: functional.
Test [6] can be described thus: Concentration required to 10% of controls reduce cell survival under hypoxic conditions using the UV4 aerobic cells. It is filed as functional, Cricetulus griseus.

For `NC(=O)c1cc(N(CCCl)CCCl)c([N+](=O)[O-])cc1[N+](=O)[O-]`, the pIC50 is less than 3.00 in test [1], 2.84 in test [2] and 3.06 in test [4]. In test [3], this compound came in with a CT10 of 95 µM.

`CN(C)CCNC(=O)c1cc(N(CCCl)CCCl)c([N+](=O)[O-])cc1[N+](=O)[O-]`: the CT10 was determined as 1300 µM in test [5] and 400 µM in test [6]. Also, the pIC50 in test [2] was 3.66; in test [4] it was 5.51.
